Consider 4 molecules from patent US9624167B2, “N-(4-hydroxy-4-methyl-cyclohexyl)-4-phenyl-benzenesulfonamides and N-(4-hydroxy-4-methyl-cyclohexyl)-4-(2-pyridyl)benzenesulfonamides and their therapeutic use” (PIMCO 2664 LIMITED, priority 2013, dated 2017).

Series [1] can be described thus: Rodent pharmacokinetics study. It is filed as in vivo, Sprague-Dawley rats. As to conditions: rat; for half-life: male, Sprague-Dawley, plasma, elimination phase half-life; for p.o. AUC: oral 5 mg/kg in 0.5% CMC/0.1% Tween-80 (HMC-C-01-A in 2% dimethylacetamide/20% hydroxypropyl-β-cyclodextrin); for Bioavail, F: tentative oral bioavailability, F=AUC(p.o.)×Dose(i.v.)/AUC(i.v.)×Dose(p.o.); for i.v. AUC: intravenous 1 mg/kg. On the procedure:
Absorption and metabolic stability were studied using an in vivo pharmacokinetics assay.
Three male Sprague-Dawley rats, aged 8-12 weeks, were dosed with test compounds administered either orally or intravenously (dose level of 1 mg/kg body weight intravenous or 5 mg/kg body weight orally). Test compounds were formulated in 0.5% carboxymethylcellulose (CMC)/0.1% Tween-80 for administration via the oral route, or in 5% DMSO/10% solutol in saline for administration via the intravenous route. For compound HMC-C-01-A the oral administration was formulated in 2% dimethylacetamide/20% hydroxypropyl-β-cyclodextrin in water. Animals were given free access to food throughout the study except for fasting overnight and until 2 hours post dose on the day of dosing.
Blood samples were taken from the retro-orbital plexus at the following time points and placed in microtubes containing 20% K2EDTA solution:
Oral Dosing: predose; 0.25, 0.5, 1, 2, 4, 6, 8, and 24 hours post dose.
Intravenous Dosing: predose; 0.08, 0.25, 0.5, 1, 2, 4, 8, and 24 hours post dose.
Blood samples were centrifuged to obtain plasma, which was transferred to a separate container and frozen at −20° C.
For analysis, samples were thawed at room temperature and prepared by protein precipitation with acetonitrile spiked with internal standard (500 ng/mL glipizide) in the ratio 1:4 with plasma. The samples were then vortexed for 5 minutes and centrifuged for 10 minutes at 20,600×g at 4° C. 100 μL of the supernatant was collected for analysis. The standard samples were prepared similarly, after spiking blank rat plasma samples with 10 μL of analyte.
The pharmacokinetic parameters for the test compounds were calculated by Phoenix WinNonlin version 6.3 (Pharsight Corp, CA) using standard non-compartmental methods. Peak plasma concentrations (Cmax) and time of the peak plasma concentration (Tmax) were the observed values. The area under the plasma concentration-time curve (AUC) was determined by use of the linear trapezoidal rule up to the last measurable concentration (AUClast) and thereafter by extrapolation of the terminal elimination phase to infinity (AUCinf). The terminal elimination rate constant (kel) was determined by regression analysis of the linear terminal portion of the log plasma concentration-time curve. The elimination phase half-life (t1/2) was calculated as 0.693/kel.

Series [2] deals with J774 macrophages. Nature of the series: Resazurin Macrophage J774 Viability Assay. Type of series: cell-based. As to conditions: Mus musculus, 6 point concentration range 10 μM to 10 nM, n = 3 replicates, mean of 2 independent experiments, 72 hour incubation, read-out: IC50 (1). On the procedure:
Potency was assessed using a viability assay based on the survival of the J774 macrophage cell line. Macrophages are closely related to osteoclasts and have been used previously as a model system for osteoclast survival (see, e.g., Luckman et al., 1998, “Heterocycle-containing bisphosphonates cause apoptosis and inhibit bone resorption by preventing protein prenylation: evidence from structure-activity relationships in J774 macrophages,” J. Bone Miner. Res., Vol. 13, pp. 1668-1678). The model is indicative both of effects on bone protection in diseases such as osteoporosis, osteoarthritis and rheumatoid arthritis, and of effects on inflammation since, like osteoclasts, J774 macrophages are dependent for survival on continued NFκB activation.
In vitro potency of test compounds was determined by incubation with J774 macrophages and subsequent determination of cell viability using resazurin.
Resazurin is a redox dye commonly used as an indicator of viability in cultured cells (see, e.g., Anoopkumar-Dukie, 2005, British Journal of Radiology, Vol. 78, pp. 945-947). It is non-toxic to cells and stable in culture medium, allowing continuous measurement of cell proliferation in vitro as either a kinetic or endpoint assay. The assay is based on the ability of viable, metabolically-active cells to reduce resazurin (which is blue and non-fluorescent) to resorufin and dihydroresorufin (which are red and fluorescent) using electrons from reducing species, such as nicotinamide adenine dinucleotide (NADPH) and flavin adenine dinucleotide (FADH). This transformation, from oxidised form to reduced form, can be measured either colorimetrically or fluorometrically. Insults that impair cell viability and proliferation also affects the capacity of cells to reduce resazurin, and the rate of dye reduction is directly proportional to the number of viable cells present.
For fluorescence measurements, 530-560 nm excitation and 590 nm emission wavelengths are typically used. For colorimetric measurements, absorbance at 570 nm (reduced form) and 600 nm (oxidised form) is typically measured. A simple calculation is performed to determine the relative quantities of the two species: a high ratio of resorufin (the reduced form) to resazurin (the oxidised form) is an indicator that cells are proliferating and viable. A low ratio indicates cells that are quiescent or non-viable.
J774 cells were plated at 10^4 cells per well in 100 μL αMEM (α Modified Eagle Medium) in 96-well plates and allowed to adhere overnight. The following day, test compounds were prepared as 100 mM solutions in DMSO. These stock solutions were diluted in DMSO and then diluted 1000× in culture medium (αMEM) before being added directly to the wells so as to give the desired final compound concentration. After a 72 hour incubation at 37° C./5% CO2, resazurin (Alamar Blue, Biosource International) was added to each well (1:10 v/v, 10 μL). The plate was then incubated at 37° C. for 3 hours and fluorescence was measured at 590 nm, with a 25 nm bandwidth.
The average results for each test compound were expressed as a percent (%) of the average control value reflecting cell viability. The average values across the concentrations tested were then plotted and the IC50 for was calculated by fitting the data to a 4-parameter IC50 equation using software from Grafit (Erithacus Software). Each experiment was repeated twice and the data are presented as the mean IC50 from both experiments.
(In general: Alamar Blue is a resazurin reagent that responds to reducing activity.)

Series [3] relates to J774 macrophages. Nature of the series: Resazurin Macrophage J774 Viability Assay. As to conditions: Mus musculus, 12 point concentration range 10 μM to 0.5 nM, n = 4 replicates, mean of 3 independent experiments, 72 hour incubation, read-out: IC50 (2). Type of series: cell-based.

SMILES strings stand for the structures. pIC50: −log10 of the molar value. Where two headings read alike, the source gives them in different places.

By half-life is commonly meant the time in which the quantity being followed falls by half. Lower therefore signals rapid decline. For orientation: pIC50 means the negative decadic logarithm of the IC50, by convention in mol/L. For the molecule `C[C@]1(O)CC[C@H](NS(=O)(=O)c2ccc(-c3ncc(Cl)cc3Cl)cc2)CC1` [HMC-N-03-A, 4-(3,5-Dichloropyridin-2-yl)-N-((1r,4r)-4-hydroxy-4-methylcyclohexyl)benzenesulfonamide], in series [1], the half-life was 3.1 h; the p.o. AUC worked out at 16 ng·h/mL; the “Bioavail, F” value was 8%. The pIC50 in the series on J774 macrophages [2] is 6.77. For the same molecule, the negative logarithm of the IC50 (pIC50) in the series on J774 macrophages [3] was 6.21.

`C[C@]1(O)CC[C@H](NS(=O)(=O)c2ccc(-c3ccc(F)cc3C(F)(F)F)cc2)CC1` [HMC-C-02-A, 4′-Fluoro-N-((1r,4r)-4-hydroxy-4-methylcyclohexyl)-2′-(trifluoromethyl)biphenyl-4-sulfonamide]: in series [1], the half-life is 3.2 h; the “i.v. AUC” value came out at 546 ng·min/mL; the p.o. AUC was determined as 17.8 ng·h/mL; the “Bioavail, F” value is 39%. Moreover, the pIC50 with J774 macrophages [2] is 6.59. Moreover, the pIC50 in the series with J774 macrophages [3] is 4.83.

`C[C@]1(O)CC[C@H](NS(=O)(=O)c2ccc(-c3c(F)cc(F)cc3F)cc2)CC1` [HMC-C-03-A, 2′,4′,6′-Trifluoro-N-((1r,4r)-4-hydroxy-4-methylcyclohexyl)biphenyl-4-sulfonamide]: in series [1], the half-life is 2.4 h; the “i.v. AUC” value came out at 1427 ng·min/mL; the p.o. AUC was 65.2 ng·h/mL; the “Bioavail, F” value is recorded as 55%. In the series on J774 macrophages [2], the negative-log IC50 (pIC50) is 6.85. Further, the negative logarithm of the IC50 (pIC50) in the series with J774 macrophages [3] was 6.39.

As to `C[C@]1(O)CC[C@H](NS(=O)(=O)c2ccc(-c3ncc(F)cc3F)c(F)c2)CC1` [HMC-N-01-A, 4-(3,5-Difluoropyridin-2-yl)-3-fluoro-N-((1r,4r)-4-hydroxy-4-methylcyclohexyl)benzenesulfonamide], in series [1], the half-life is 13.4 h; the “i.v. AUC” value is on record as 740 ng·min/mL; the p.o. AUC is 23.5 ng·h/mL; the “Bioavail, F” value amounted to 64%. Also, the negative logarithm of the IC50 (pIC50) in the series with J774 macrophages [2] was 6.89. Moreover, the pIC50 in the series with J774 macrophages [3] was 5.58.
